Test results from publication PMC9629815, “MK256 is a novel CDK8 inhibitor with potent antitumor activity in AML through downregulation of the STAT pathway” (Oncotarget, 2022).

Legend:
SET-2 = assay: Cell proliferation assay (CellTiter-Glo, 7-day); type: cell-based; conditions: Homo sapiens, SET-2, 168 h
[1] = test system: p-STATs and MCL-1 in MV-4-11 cells; assay: Western blot of STAT pathway in MV-4-11 cells; type: cell-based; conditions: 48 hrs
Protocol: For the in vitro western blot study, MV-4-11 and MOLM-14 cells were plated (6-well) at 5 × 10^5 cells per well with medium containing 1% FBS overnight. MK-256 was added in different concentrations at different time points. […] Total protein concentration was measured using the Pierce BCA protein Assay Kit (23227, Thermo Fisher Scientific). Proteins were separated on SDS-PAGE and transferred to Nitrocellulose membrane.

[2] = Hepatocyte stability assay; type: in vitro ADME, Dog
Protocol: Human LiverPoolTM 20-donor, dog and mouse cryopreserved hepatocytes were obtained from BioreclamationIVT. Cryopreserved hepatocytes were removed from the liquid nitrogen tank and thawed in a 37°C water bath. As soon as the cells pulled away from the vial wall, they were decanted into 48 ml of warm HT medium. Cells were centrifuged for four minutes at 420 rpm (50 g). After the supernatant was removed, the pellet was re-suspended in warm DMEM medium. Cell density was counted by a hemacytometer. The assay was carried out in 96-well microtiter plates. MK256 was incubated for 0, 60, 120, and 180 minutes at 37°C with hepatocytes. Reaction mixtures (50 μL) contained a final concentration of 1 μM MK256, 0.5 million cells/mL hepatocytes in the DMEM medium. At each time point (for example, 0, 1, 2, and 3 hrs), 200 μL of quench solution (100% acetonitrile with 0.1% formic acid) with internal standard were transferred to each well. […] All samples were analyzed on LC/MS/MS using an AB Sciex API 4000 instrument, coupled to a Shimadzu LC-20AD LC Pump system. […] The extent of metabolism was calculated as the disappearance of the test compound, compared to the 0-min control reaction incubations. Initial rates were calculated for the compound concentration and used to determine t1/2 values and subsequently, the intrinsic clearance, CLint = (0.693)(1/t1/2 (min))(mL incubation/million cells).

[3] = test system: CD34+/CD38- AML TEX cells; assay: Flow cytometry of differentiation/maturation markers; type: cell-based, human
Protocol: […] novel human leukemic cell line (TEX) cells were plated on 100 mm culture dishes at 5 × 10^5 per well, starved with medium containing IMDM supplemented with 1.5%FCS, 2 ng/ml SCF, and 0.2 ng/ml IL-3 (Amgen, Thousand Oaks, CA, USA) overnight. […] Media with tested drugs was replaced on the third day. Following the 6-day treatments, cultures were washed once in Sort buffer (PBS + 2% FBS + 2 mM EDTA), and resuspended to a final concentration of 50 million cells/mL into a 96-well V-shaped plate. Cells were subsequently incubated with Zombie Aqua Fixable Viability Dye (Thermo), washed with Sort buffer, and incubated with Human FcX (BioLegend) to prevent non-specific antibody binding. Following FcX incubation, cells were washed with Sort buffer and incubated with cell surface antibody mix diluted in the BV stain buffer (BD Biosciences) following manufacturer instructions for 30 mins on ice in the dark. Cells were then washed with 100 mL Sort buffer and permeabilized in fresh Fix/Perm solution (Foxp3 Transcription Factor Staining Buffer from eBioscience) following the manufacturer’s instructions. Cell were subsequently incubated in intracellular stain mix in Perm Buffer (1 mL 10× Perm Buffer (eBiosceince) + 8.8 mL dH2O + 2% FCS) for 30 mins on ice in dark. Isotype controls were stained with mouse IgG conjugated to FITC, PE, PerCP-Cy5.5, PE-Cy7, APC, and Alexa Fluor™ 700. Antibodies used to stain cells were FITC-conjugated anti-CD93, PE-conjugated anti-CD96, PerCP-Cy5.5-conjugated anti-CD38, PE-Cy7-conjugated anti CD-34, APC-conjugated anti-CD117, and Alexa Fluor™ 700-conjugated LIVE/DEAD (Invitrogen). Stained samples were resuspended in Perm Buffer and run on a FACSAriaII Flow Cytometer (BD Biosciences). Data were analyzed in FACSDiva (BD Biosciences) and FlowJo (Treestar). To determine the absolute numbers of cells in samples analyzed by FACS, AccuCount beads (Spherotech) were added to stained samples prior to each FACS run per manufacturer’s instructions, and absolute cell counts were calculated based on the known number of beads added. In order to cellularly differentiate apoptosis in AML cells, MOLM14, as a result of synergetic treatments of MK256 combined with ABT199, we used Dead Cell Apoptosis Kits with Annexin V (Invitrogen). MOLM14 cells were plated on a 96-well V-shaped plate at 5x10^5 per well, starved with medium containing 99% RPMI 1640, 1% FBS, and 1X Antibiotic-Antimycotic (Invitrogen). MK256 were added to final concentrations of 13.7 nM, 41.2 nM, 123.5 nM, 370.4 nM, […] on each column, while ABT199 was at final concentrations of 0.2 nM, 0.5 nM, 4.1 nM, 12.3 nM, 37.0 nM on each row. Following 72-hr retreatment, cultures were washed once in Sort buffer (PBS + 2% FBS + 2 mM EDTA) and resuspended to a final concentration of 10^4 cells/well into a 96-well V-shaped plate. Cells were subsequently incubated with Alex Fluor™ 488 annexin V and PI for Flow Cytometry following manufacturer’s instructions.

Nc1nccc2c(Br)cc3cc(C(=O)O)ccc3c12 [MK256]
IC50 (SET-2): 212 nM
expression levels of p-STAT1 (S727), p-STAT3(S727), p-STAT5(S726) ([1]; 30 nM to 1 uM): trend of reduction
expression of MCL-1 ([1]; 30 nM to 1 uM, dose-dependent): reduced expression
expression level of MCL-1, p-STAT3(S727) and p-STAT5(S726) ([1]; 1 uM): remained at minimal levels
expression level of p-STAT1(S727) ([1]; 1 uM): abrogated completely
expression levels of p-STAT1(Y701) and p-STAT5(Y694) ([1]; high concentrations): unaffected
Clint (μL·min^−1·mg protein^−1) ([2]; Dog hepatocytes): 7 μL·min^−1·mg protein^−1
half-life at 1 µM ([2]; dog, cryopreserved dog hepatocytes, read-out: T½): 3.57 h
differentiation of TEX cells ([3]; 50 nM): slightly induced the differentiation
decrease of CD93 relative to control ([3]; 50 nM, day 6): 6.5%
increase of CD117 population relative to control ([3]; 50 nM, day 6): 16.5%
reduction in CD34 compared to control cells ([3]; 50 nM, day 6): 13%
differentiation of TEX cells ([3]; 500 nM): much more effective
decrease of CD93 relative to control ([3]; 500 nM, day 6): approximately 30%
increase of CD117 population relative to control ([3]; 500 nM, day 6): 8.6%
reduction in CD34 compared to control cells ([3]; 500 nM, day 6): 28%
expression of CD96 with or without treatment ([3]; day 6): no difference
reduction of CD38 negativity ([3]; treated vs control (60% CD38-)): approximately 2 fold
